Tested on: 276233-004-R-J1-PDC complex spheroid viability
Test: Anticancer human tumor 276233-004-R-J1-PDC patient-derived colon adenocarcinoma cell line growth inhibition [GQUAD]
Conditions: for IC50: curve of first compound; for viability, T/C: stronger effect = lower value
Outline: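 Tumor cells were grown as complex spheroids with HUVEC endothelial cells and mesenchymal stem cells as stroma. G-quadruplex stabilizers were combined with targeted agents over half-log dilutions from near the clinical Cmax, or from 10 microM.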

[1] = second compound 0.0316 µM, first compound 0.0316 µM
[2] = second compound 0.0316 µM, first compound 0.1 µM
[3] = second compound 0.0316 µM, first compound 0.316 µM
[4] = second compound 0.0316 µM, first compound 1 µM
[5] = second compound 0.0316 µM, first compound 3.16 µM
[6] = second compound 0.0316 µM, first compound 10 µM
[7] = second compound 0.1 µM, first compound 0.0316 µM
[8] = second compound 0.1 µM, first compound 0.1 µM
[9] = second compound 0.1 µM, first compound 0.316 µM
[10] = second compound 0.1 µM, first compound 1 µM
[11] = second compound 0.1 µM, first compound 3.16 µM
[12] = second compound 0.1 µM, first compound 10 µM
[13] = second compound 0.316 µM, first compound 0.0316 µM
[14] = second compound 0.316 µM, first compound 0.1 µM
[15] = second compound 0.316 µM, first compound 0.316 µM
[16] = second compound 0.316 µM, first compound 1 µM
[17] = second compound 0.316 µM, first compound 3.16 µM
[18] = second compound 0.316 µM, first compound 10 µM
[19] = second compound 1 µM, first compound 0.0316 µM
[20] = second compound 1 µM, first compound 0.1 µM
[21] = second compound 1 µM, first compound 0.316 µM
[22] = second compound 1 µM, first compound 1 µM
[23] = second compound 1 µM, first compound 3.16 µM
[24] = second compound 1 µM, first compound 10 µM
[25] = second compound 3.16 µM, first compound 0.0316 µM
[26] = second compound 3.16 µM, first compound 0.1 µM
[27] = second compound 3.16 µM, first compound 0.316 µM
[28] = second compound 3.16 µM, first compound 1 µM
[29] = second compound 3.16 µM, first compound 3.16 µM
[30] = second compound 3.16 µM, first compound 10 µM
[31] = second compound 10 µM, first compound 0.0316 µM
[32] = second compound 10 µM, first compound 0.1 µM
[33] = second compound 10 µM, first compound 0.316 µM
[34] = second compound 10 µM, first compound 1 µM
[35] = second compound 10 µM, first compound 3.16 µM
[36] = second compound 10 µM, first compound 10 µM
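Further: spheroids exposed to drugs for seven days.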
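Wherever viability, T/C is given: 100% = DMSO vehicle control viability.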

## CC1COCCN1c1cc(C2(S(C)(=N)=O)CC2)nc(-c2ccnc3[nH]ccc23)n1 (centres undefined) + Cc1cnc(CNC(=O)c2c(=O)c3ccc(N4CCCN(C)CC4)nc3n3c2sc2ccccc23)cn1
Second compound 0.0316 µM
  IC50: > 10 µM
Second compound 0.1 µM
  IC50: > 10 µM
Second compound 0.316 µM
  IC50: > 10 µM
Second compound 1 µM
  IC50: > 10 µM
Second compound 3.16 µM
  IC50: 5.9 µM
Second compound 10 µM
  IC50: > 10 µM
[1]
  viability, T/C: 99%
[2]
  viability, T/C: 72.1%
[3]
  viability, T/C: 90.8%
[4]
  viability, T/C: 77.4%
[5]
  viability, T/C: 75.3%
[6]
  viability, T/C: 60.2%
[7]
  viability, T/C: 82%
[8]
  viability, T/C: 76.5%
[9]
  viability, T/C: 76%
[10]
  viability, T/C: 92.6%
[11]
  viability, T/C: 80.2%
[12]
  viability, T/C: 64.5%
[13]
  viability, T/C: 75.2%
[14]
  viability, T/C: 87.8%
[15]
  viability, T/C: 83.5%
[16]
  viability, T/C: 78.2%
[17]
  viability, T/C: 79.1%
[18]
  viability, T/C: 58.6%
[19]
  viability, T/C: 75.8%
[20]
  viability, T/C: 72.3%
[21]
  viability, T/C: 72.9%
[22]
  viability, T/C: 58.7%
[23]
  viability, T/C: 70.9%
[24]
  viability, T/C: 53%
[25]
  viability, T/C: 64.5%
[26]
  viability, T/C: 67.6%
[27]
  viability, T/C: 75.4%
[28]
  viability, T/C: 69.3%
[29]
  viability, T/C: 57%
[30]
  viability, T/C: 41.9%
[31]
  viability, T/C: 63.3%
[32]
  viability, T/C: 66%
[33]
  viability, T/C: 73%
[34]
  viability, T/C: 58.8%
[35]
  viability, T/C: 65%
[36]
  viability, T/C: 42.8%

## COc1cc(C2c3cc4c(cc3C(OC3OC5COC(C)OC5C(O)C3O)C3COC(=O)C23)OCO4)cc(OC)c1O (centres undefined) + CN(C)c1ccc(Nc2c3ccc(NC(=O)CCN4CCCC4)cc3nc3cc(NC(=O)CCN4CCCC4)ccc23)cc1
Second compound 0.0316 µM
  IC50: > 10 µM
Second compound 0.1 µM
  IC50: > 10 µM
Second compound 0.316 µM
  IC50: > 10 µM
Second compound 1 µM
  IC50: > 10 µM
Second compound 3.16 µM
  IC50: > 10 µM
Second compound 10 µM
  IC50: 3.31 µM
[1]
  viability, T/C: 95.7%
[2]
  viability, T/C: 106%
[3]
  viability, T/C: 98.9%
[4]
  viability, T/C: 90.4%
[5]
  viability, T/C: 87%
[6]
  viability, T/C: 98.8%
[7]
  viability, T/C: 75.8%
[8]
  viability, T/C: 88.2%
[9]
  viability, T/C: 92.7%
[10]
  viability, T/C: 82.3%
[11]
  viability, T/C: 77.7%
[12]
  viability, T/C: 78.4%
[13]
  viability, T/C: 60.1%
[14]
  viability, T/C: 69%
[15]
  viability, T/C: 55.5%
[16]
  viability, T/C: 69.4%
[17]
  viability, T/C: 61.2%
[18]
  viability, T/C: 61.3%
[19]
  viability, T/C: 56.6%
[20]
  viability, T/C: 45.2%
[21]
  viability, T/C: 58.5%
[22]
  viability, T/C: 62.3%
[23]
  viability, T/C: 55.4%
[24]
  viability, T/C: 55%
[25]
  viability, T/C: 54.8%
[26]
  viability, T/C: 49%
[27]
  viability, T/C: 52.2%
[28]
  viability, T/C: 56.5%
[29]
  viability, T/C: 61.5%
[30]
  viability, T/C: 54.6%
[31]
  viability, T/C: 46.8%
[32]
  viability, T/C: 59.5%
[33]
  viability, T/C: 47.3%
[34]
  viability, T/C: 57.4%
[35]
  viability, T/C: 45.7%
[36]
  viability, T/C: 48.5%
